Results taken from ChEMBL document CHEMBL1201862, “PubChem BioAssay data set” (2004).
Activity calls are given as the source filed them.

Biological target: T1, Cytochrome P450 1A2 (Homo sapiens, UniProt P05177);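 note: PubChem cytochrome P450 panel assay, CYP1A2 panel member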
T1 sequence (P05177 whole entry): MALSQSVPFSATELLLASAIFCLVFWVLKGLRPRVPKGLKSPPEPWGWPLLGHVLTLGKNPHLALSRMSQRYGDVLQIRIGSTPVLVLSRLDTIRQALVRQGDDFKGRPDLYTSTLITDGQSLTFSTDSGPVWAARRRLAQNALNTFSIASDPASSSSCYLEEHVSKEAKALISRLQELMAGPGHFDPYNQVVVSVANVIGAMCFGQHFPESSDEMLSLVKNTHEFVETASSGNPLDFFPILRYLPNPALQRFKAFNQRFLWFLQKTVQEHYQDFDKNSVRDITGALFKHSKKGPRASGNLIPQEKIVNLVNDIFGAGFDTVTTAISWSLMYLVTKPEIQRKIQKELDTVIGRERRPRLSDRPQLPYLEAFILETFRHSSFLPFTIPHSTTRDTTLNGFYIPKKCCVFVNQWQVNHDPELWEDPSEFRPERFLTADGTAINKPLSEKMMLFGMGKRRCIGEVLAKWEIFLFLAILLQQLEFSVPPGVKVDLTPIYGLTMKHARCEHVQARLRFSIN
Settings: not given

SMILES	AC50
Clc1ccc(C2=C3CCCCn4c(-c5ccccc5)c[n+](c43)C2)cc1	12.6 µM (inconclusive)

Tested on: not listed separately
Assay: Luminescence Cell-Based Dose Retest to Confirm Inhibitors of Cancer Stem Cells. [Related pubchem assays (depositor defined):AID2717, AID2721]
Type: functional
Settings: Homo sapiens

SMILES	AC50
COc1ccc(/C=C/C(=O)c2ccncc2)c2ccccc12	11.8 µM (active)
CCOC(=O)c1ccc(Nc2cc(C)nc(-c3ccccc3)n2)cc1	2.1 µM (active)
COc1ccc(OC)c(-c2cc(-c3cccnc3)nc(N)c2C#N)c1	0.766 µM (active)
O=C(NCC(c1cccs1)N1CCOCC1)c1ccc(Cl)s1 (stereo not given)	2.89 µM (active)

Tested on: INS1
Assay: beta cell apoptosis inhibitors, cytokine rescue, dose response, luminescence, retest (AID 449756);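 note: cell death triggered by IL-1 beta plus TNF-alpha plus IFN-gamma mixture; protective hits raise ATP signal compared with cytokine alone wells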
Type: functional, cell-based
Settings: Rattus norvegicus

SMILES	AC50
COc1ccc(/C=C/C(=O)c2ccncc2)c2ccccc12	26.7 µM (active)

Biological target: T2, Heat shock factor protein 1 (Mus musculus, UniProt P38532)
T2 sequence (P38532 whole entry): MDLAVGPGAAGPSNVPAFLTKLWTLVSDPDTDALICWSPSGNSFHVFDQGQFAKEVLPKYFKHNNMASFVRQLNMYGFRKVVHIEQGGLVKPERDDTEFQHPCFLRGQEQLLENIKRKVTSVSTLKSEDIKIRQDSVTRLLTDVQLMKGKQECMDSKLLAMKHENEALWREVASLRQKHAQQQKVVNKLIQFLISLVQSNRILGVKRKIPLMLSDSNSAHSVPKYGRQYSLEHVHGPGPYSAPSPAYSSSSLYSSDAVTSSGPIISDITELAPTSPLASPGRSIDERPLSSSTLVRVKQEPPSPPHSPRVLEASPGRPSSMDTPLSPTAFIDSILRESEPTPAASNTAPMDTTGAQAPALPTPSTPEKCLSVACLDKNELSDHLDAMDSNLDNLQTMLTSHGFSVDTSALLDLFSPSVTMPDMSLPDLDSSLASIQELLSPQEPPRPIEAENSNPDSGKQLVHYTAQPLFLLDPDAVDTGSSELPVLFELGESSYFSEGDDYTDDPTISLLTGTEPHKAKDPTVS
Assay: inhibition of MG132-induced HSE-luciferase signal, confirmation, cell-based, NIH3T3, luminescence, dose retest (AID 2382);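 note: NIH3T3 fibroblasts with HSF1-driven luciferase reporter stressed by proteasome inhibitor MG132; luminescence from HSF1-driven luciferase expression after 8 hours of MG132 stress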
Type: functional
Settings: not given

SMILES	EC50
CN(C)c1ccc(/C=N\Nc2nc(O)cc(-c3ccccc3)n2)cc1	> 195 µM (not active)
N#CCc1nn(-c2ccccc2)c2ncnc(N)c12	30.8 µM (active)
O=C(Nc1cccc2ncccc12)C(Cl)(Cl)Cl	> 195 µM (not active)
O=C(Nc1cccnc1)c1coc(=O)c2ccccc12	> 195 µM (not active)
O=C(NCCCN1CCCC1=O)c1cccc(N2CCCC2=O)c1	> 195 µM (not active)
COc1ccc(Cl)cc1C(=O)NCC(=O)OCc1ccccc1	> 195 µM (not active)
CC1Cc2cc(C(=O)C3=C(O)C(=O)N(CC4CCCO4)C3c3ccco3)ccc2O1 (stereo not given)	69.9 µM (active)
CCOC(=O)c1ccc(NC(=O)N2CCN(S(C)(=O)=O)CC2)cc1	> 195 µM (not active)
CCSc1nnc(-c2ccc(S(=O)(=O)NCc3cccs3)cc2)o1	> 195 µM (not active)
CCC1Sc2ccc(S(=O)(=O)Nc3ccc(OC)cc3)cc2NC1=O (stereo not given)	> 195 µM (not active)
Cc1cc(C)nc(-n2c(C)nc3cc(Cl)ccc3c2=O)c1	35.9 µM (active)
Cc1cc(NC(=O)COc2coc(CN3CCN(c4ccccc4F)CC3)cc2=O)no1	> 195 µM (not active)
O=S1(=O)N[C@H](c2ccccc2)C[C@H](c2ccc(C(F)(F)F)cc2)O1	> 195 µM (not active)

Biological target: T3, Corticotropin-releasing factor receptor 2/Corticotropin-releasing factor-binding protein (Homo sapiens, UniProt P24387+Q13324)
T3 sequence (Q13324 whole entry): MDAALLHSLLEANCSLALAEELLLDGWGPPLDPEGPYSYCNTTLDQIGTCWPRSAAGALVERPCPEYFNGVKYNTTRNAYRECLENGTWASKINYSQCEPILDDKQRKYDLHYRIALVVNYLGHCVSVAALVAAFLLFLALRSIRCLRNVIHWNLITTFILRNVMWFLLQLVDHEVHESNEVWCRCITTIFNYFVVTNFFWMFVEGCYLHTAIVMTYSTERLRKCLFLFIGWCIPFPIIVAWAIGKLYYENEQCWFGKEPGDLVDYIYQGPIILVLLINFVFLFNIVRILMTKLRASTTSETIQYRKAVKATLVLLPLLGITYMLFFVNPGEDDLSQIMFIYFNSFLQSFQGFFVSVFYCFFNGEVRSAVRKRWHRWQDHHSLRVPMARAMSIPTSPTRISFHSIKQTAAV
T3 sequence (P24387 whole entry): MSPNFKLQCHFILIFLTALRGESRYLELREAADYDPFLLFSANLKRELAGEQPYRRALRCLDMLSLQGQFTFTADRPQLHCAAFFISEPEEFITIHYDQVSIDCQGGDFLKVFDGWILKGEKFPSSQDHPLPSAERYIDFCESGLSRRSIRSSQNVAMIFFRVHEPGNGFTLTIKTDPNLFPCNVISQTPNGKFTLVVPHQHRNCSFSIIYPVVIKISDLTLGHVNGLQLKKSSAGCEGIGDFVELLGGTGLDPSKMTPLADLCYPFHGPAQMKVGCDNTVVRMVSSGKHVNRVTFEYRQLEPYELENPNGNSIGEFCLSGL
Assay: activators of CRF receptor 2 with binding protein – uHTS hits, confirmation (AID 602473)
Type: functional
Settings: read-out: EC50_Mean

SMILES	EC50
Cc1ccccc1NS(=O)(=O)c1cc2c(cc1C)NC(=O)CO2	> 53 µM (inactive)

Biological target: T4, Protein RecA (Mycobacterium tuberculosis, UniProt P9WHJ3)
T4 sequence (P9WHJ3 whole entry): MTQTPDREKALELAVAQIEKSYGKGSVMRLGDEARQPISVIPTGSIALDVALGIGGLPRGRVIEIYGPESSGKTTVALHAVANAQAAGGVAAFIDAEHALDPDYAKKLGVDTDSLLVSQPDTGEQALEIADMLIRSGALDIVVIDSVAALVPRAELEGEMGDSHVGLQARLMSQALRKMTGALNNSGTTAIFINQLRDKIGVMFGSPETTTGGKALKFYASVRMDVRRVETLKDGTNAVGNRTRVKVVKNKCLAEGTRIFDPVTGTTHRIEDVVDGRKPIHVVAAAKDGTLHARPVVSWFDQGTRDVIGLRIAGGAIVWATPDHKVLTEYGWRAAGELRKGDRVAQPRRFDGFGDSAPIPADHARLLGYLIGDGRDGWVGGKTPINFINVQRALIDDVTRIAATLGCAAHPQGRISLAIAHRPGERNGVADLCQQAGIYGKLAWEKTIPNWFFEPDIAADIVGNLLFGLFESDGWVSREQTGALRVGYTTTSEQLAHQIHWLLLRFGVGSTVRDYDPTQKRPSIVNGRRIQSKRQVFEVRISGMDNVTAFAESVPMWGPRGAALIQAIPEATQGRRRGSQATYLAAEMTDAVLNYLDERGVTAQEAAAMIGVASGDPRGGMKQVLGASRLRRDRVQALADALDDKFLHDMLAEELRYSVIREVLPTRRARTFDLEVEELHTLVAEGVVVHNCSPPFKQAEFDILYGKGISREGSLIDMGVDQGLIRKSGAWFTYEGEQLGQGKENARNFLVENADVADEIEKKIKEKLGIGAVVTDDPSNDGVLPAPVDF
Assay: Fluorescence Cell-Free Homogeneous Dose Retest to Identify Inhibitors of RecA-Intein Splicing Activity. [Related pubchem assays (depositor defined):AID2097, AID2223, AID489010, AID492950]
Type: functional
Settings: not given

SMILES	EC50
CC(C)c1n[nH]c2c1C(c1ccc(OC(=O)c3ccco3)cc1)C(C#N)=C(N)O2 (stereo not given)	3.02 µM (active)
C=C(C)C(=O)NC1=NN(c2ccccc2)C(=O)C1	37 µM (active)
Clc1ccc(C2=C3CCCCn4c(-c5ccccc5)c[n+](c43)C2)cc1	50 µM (active)
Cc1ccc(C(c2c(C)n[nH]c2O)c2c(C)n[nH]c2O)cc1	0.248 µM (active)
COc1ccc(/C=C/C(=O)c2ccncc2)c2ccccc12	8.84 µM (active)
c1ccc(CCNCc2cccs2)cc1	> 380 µM (inactive)
Cc1c(C)n(O)c2ccc3nonc3c12	3.67 µM (active)
Cc1ccc(Sc2oc(/C=N/n3cnnc3)cc2Br)cc1	9.82 µM (active)
Cc1ccc(/N=C2\C(Cl)=C(O)OC2OC(=O)c2ccco2)cc1C (stereo not given)	8.65 µM (active)
CC1=NNC(=O)C1Cc1ccccc1C (stereo not given)	0.329 µM (active)

Tested on: Streptococcus
Assay: Group A Streptococcus viability loss, dose response, counter-screen for streptokinase expression inhibitor project, luminescence, BacTiterGlo (AID 1915);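 note: potency for reduction of bacterial viability or growth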
Type: functional, organism-based
Settings: not given

SMILES	EC50
COC(=O)c1cccc(NC(S)=NCc2ccc(Cl)cc2)c1	15.8 µM (active)
Cc1nnc(SCC2=C(C(=O)O)N3C(=O)C(NC(=O)Cn4nc(C)c(Cl)c4C)C3SC2)s1 (stereo not given)	0.115 µM (active)

Biological target: Cytochrome P450 2C19 (Homo sapiens, UniProt P33261)
Assay: Cytochrome panel assay with activity outcomes. Panel member name: p450-cyp2c19 Compounds with AC50 equal or less than 10 uM are considered active
Type: functional
Settings: read-out: AC50

Cytochrome P450 2C19, sequence (P33261 whole entry): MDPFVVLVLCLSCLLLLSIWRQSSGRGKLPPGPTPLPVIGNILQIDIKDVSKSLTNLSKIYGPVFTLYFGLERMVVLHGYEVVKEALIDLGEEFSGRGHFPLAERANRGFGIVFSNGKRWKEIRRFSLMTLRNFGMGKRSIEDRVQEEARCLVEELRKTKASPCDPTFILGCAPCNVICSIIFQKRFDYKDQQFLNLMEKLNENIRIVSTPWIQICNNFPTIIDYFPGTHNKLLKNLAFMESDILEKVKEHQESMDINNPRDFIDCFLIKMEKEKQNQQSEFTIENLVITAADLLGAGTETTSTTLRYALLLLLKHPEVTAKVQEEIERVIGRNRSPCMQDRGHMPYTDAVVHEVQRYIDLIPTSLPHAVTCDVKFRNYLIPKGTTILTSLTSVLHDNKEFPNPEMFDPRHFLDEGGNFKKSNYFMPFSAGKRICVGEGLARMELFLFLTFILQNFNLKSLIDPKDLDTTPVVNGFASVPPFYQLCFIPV

SMILES	AC50
Clc1ccc(C2=C3CCCCn4c(-c5ccccc5)c[n+](c43)C2)cc1	1.12 µM (inconclusive)

Tested on: Streptococcus sp. 'group A'
Assay: growth inhibition of control SK(-) GAS strain, dose response, counter-screen for streptokinase expression inhibitor project, luminescence, kanamycin, BacTiterGlo, confirmation (AID 1900)
Type: functional, organism-based
Settings: not given

SMILES	EC50
COC(=O)c1cccc(NC(S)=NCc2ccc(Cl)cc2)c1	13 µM (active)
Cc1nnc(SCC2=C(C(=O)O)N3C(=O)C(NC(=O)Cn4nc(C)c(Cl)c4C)C3SC2)s1 (stereo not given)	< 0.06 µM (active)

Biological target: T5, Replicative DNA helicase DnaB (Mycobacterium tuberculosis, UniProt P9WMR3)
T5 sequence (P9WMR3 whole entry): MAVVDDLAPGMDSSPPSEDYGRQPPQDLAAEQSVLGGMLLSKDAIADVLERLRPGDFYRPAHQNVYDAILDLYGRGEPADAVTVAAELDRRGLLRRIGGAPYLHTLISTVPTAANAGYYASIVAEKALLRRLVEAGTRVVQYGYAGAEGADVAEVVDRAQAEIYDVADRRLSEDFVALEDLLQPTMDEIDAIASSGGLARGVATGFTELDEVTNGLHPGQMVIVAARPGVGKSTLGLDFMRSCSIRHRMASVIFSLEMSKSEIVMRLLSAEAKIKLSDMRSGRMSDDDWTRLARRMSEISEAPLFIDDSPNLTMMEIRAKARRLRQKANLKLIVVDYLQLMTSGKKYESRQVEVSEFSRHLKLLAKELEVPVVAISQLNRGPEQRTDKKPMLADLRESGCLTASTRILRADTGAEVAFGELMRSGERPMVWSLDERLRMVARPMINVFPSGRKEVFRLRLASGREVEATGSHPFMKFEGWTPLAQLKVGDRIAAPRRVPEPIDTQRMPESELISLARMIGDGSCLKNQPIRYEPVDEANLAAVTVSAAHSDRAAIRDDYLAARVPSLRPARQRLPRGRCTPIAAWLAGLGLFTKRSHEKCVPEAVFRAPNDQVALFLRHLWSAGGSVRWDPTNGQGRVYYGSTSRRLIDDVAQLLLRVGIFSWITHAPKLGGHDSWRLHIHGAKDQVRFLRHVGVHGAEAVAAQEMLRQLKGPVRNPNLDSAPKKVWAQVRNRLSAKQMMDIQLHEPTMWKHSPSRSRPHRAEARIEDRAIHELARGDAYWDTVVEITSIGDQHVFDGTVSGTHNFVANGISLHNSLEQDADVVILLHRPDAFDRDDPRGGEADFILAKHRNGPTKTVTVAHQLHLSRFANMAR
Assay: DnaB intein splicing inhibitors, dose response, biochemical, cell-free fluorescence (AID 449749)
Type: functional
Settings: not given

SMILES	AC50
CC(C)c1n[nH]c2c1C(c1ccc(OC(=O)c3ccco3)cc1)C(C#N)=C(N)O2 (stereo not given)	6.85 µM (active)
C=C(C)C(=O)NC1=NN(c2ccccc2)C(=O)C1	3.66 µM (active)
Clc1ccc(C2=C3CCCCn4c(-c5ccccc5)c[n+](c43)C2)cc1	> 380 µM (inactive)
Cc1ccc(C(c2c(C)n[nH]c2O)c2c(C)n[nH]c2O)cc1	0.36 µM (active)
COc1ccc(/C=C/C(=O)c2ccncc2)c2ccccc12	> 120 µM (inactive)
c1ccc(CCNCc2cccs2)cc1	> 380 µM (inactive)
Cc1c(C)n(O)c2ccc3nonc3c12	> 380 µM (inactive)
Cc1ccc(Sc2oc(/C=N/n3cnnc3)cc2Br)cc1	4.42 µM (active)
Cc1ccc(/N=C2\C(Cl)=C(O)OC2OC(=O)c2ccco2)cc1C (stereo not given)	11.5 µM (active)
CC1=NNC(=O)C1Cc1ccccc1C (stereo not given)	0.538 µM (active)
